The record followed here is patent US20110077251A1, “NOVEL 17 BETA LUPANE DERIVATIVES” (priority 2009, published 2011).

Assay [1] concerns HIVIIIB. Briefly: HIV-1 replication in MT2 cell line without human serum (RT activity in supernatant). It counts as cell-based. To be noted: Human immunodeficiency virus 1, 120 h, MT2 cells, day 5 after infection, average if tested more than once, read-out: MT2 (HIVIIIB) IC50 range. The method, then:
(§1) HIV-1 Replication in MT2 cell line with and without 30% human serum: The cells are infected at a Multiciplicity of Infection (MOI) of 0.5 for 3 h and then washed twice with complete media to remove residual virus. Cells are then resuspended at 0.5×10^6/ml in complete medium (RPMI, 10% FBS, 1% sodium pyruvate), and seeded into 96-well plates (6.25×10^4/well). The cells are cultured in the presence or absence of various concentrations of test compounds in serial dilutions for 3 days at 37° C. The test compounds are serially diluted in complete medium supplemented or not with 30% human serum. After 3 days, 100 μL of cultured medium with cells are replaced with 120 μL of freshly diluted test compounds in complete medium containing or not 30% Human serum. The level of HIV-1 replication is determined at days 5 after infection by the presence of viral RT activity in harvested supernatant fluid. The IC50 values for the virus replication are determined by using GRAPHPAD PRISM software.
(§2) The IC50 of the compounds tested in accordance with the HIV replication activity assay MT2 (HIVIIIB) with or without human serum are represented in Table 6.

Assay [2] concerns HIVIIIB. As to the kind of experiment: HIV-1 replication in MT2 cell line with 30% human serum (RT activity in supernatant). It counts as cell-based. The following applies: Human immunodeficiency virus 1, 120 h, MT2 cells, day 5 after infection, average if tested more than once, read-out: MT2 (HIVIIIB) with human serum IC50 range. The protocol:
as §1, §2

For the compound `C=C(C)[C@@H]1CC[C@]2(NC(=O)c3ccncc3)CC[C@]3(C)[C@H](CC[C@@H]4[C@@]5(C)CC[C@H](OC(=O)CC(C)(C)C(=O)O)C(C)(C)[C@@H]5CC[C@]43C)[C@@H]12` [Cpd 13-8, 3β-O-(3′,3′-Dimethylsuccinyl)-17β-(pyridin-4-ylcarbonyl)-amino-28-norlup-20(29)-ene], the IC50 (in general, the concentration that inhibits the measured activity by half) was under 0.199 µM in the assay on HIVIIIB [1] and 0.2 to 0.999 µM in the assay on HIVIIIB [2].

Turning to `C=C(C)[C@@H]1CC[C@]2(NC(C)=O)CC[C@]3(C)[C@H](CC[C@@H]4[C@@]5(C)CC[C@H](OC(=O)CC(C)(C)C(=O)O)C(C)(C)[C@@H]5CC[C@]43C)[C@@H]12` [Cpd 13-1, 17β-Acetylamino-3β-O-(3′,3′-dimethylsuccinyl)-28-norlup-20(29)-ene], the IC50 with HIVIIIB [1] and in the assay with HIVIIIB [2] was under 0.199 µM each time.

As to `C=C(C)[C@@H]1CC[C@]2(NC(=O)NC(=O)OC)CC[C@]3(C)[C@H](CC[C@@H]4[C@@]5(C)CC[C@H](OC(=O)CC(C)(C)C(=O)O)C(C)(C)[C@@H]5CC[C@]43C)[C@@H]12` [Cpd 11-1, 3β-O-(3′,3′-Dimethylsuccinyl)-17β-[N′-(methoxycarbonyl)ureido]-28-norlup-20(29)-ene], the IC50 in the assay with HIVIIIB [1] and with HIVIIIB [2] was under 0.199 µM each time.

As for `C=C(C)[C@@H]1CC[C@]2(NC(=O)N3CCOCC3)CC[C@]3(C)[C@H](CC[C@@H]4[C@@]5(C)CC[C@H](OC(=O)CC(C)(C)C(=O)O)C(C)(C)[C@@H]5CC[C@]43C)[C@@H]12` [Cpd 11-8, 3β-O-(3′,3′-Dimethylsuccinyl)-17β-[(morpholine-4-carbonyl)-amino]-28-norlup-20(29)-ene], the IC50 with HIVIIIB [1] and in the assay with HIVIIIB [2] was under 0.199 µM throughout.

`C=C(C)[C@@H]1CC[C@]2(NC(=O)C(=O)N(C)C)CC[C@]3(C)[C@H](CC[C@@H]4[C@@]5(C)CC[C@H](OC(=O)CC(C)(C)C(=O)O)C(C)(C)[C@@H]5CC[C@]43C)[C@@H]12` [Cpd 13-3, 17β-Dimethylaminooxalyl-amino-3β-O-(3′,3′-dimethylsuccinyl)-28-norlup-20(29)-ene]: the IC50 with HIVIIIB [1] and in the assay with HIVIIIB [2] was under 0.199 µM in each case.

As to `C=C(C)[C@@H]1CC[C@]2(NC(=O)NCc3ccccc3)CC[C@]3(C)[C@H](CC[C@@H]4[C@@]5(C)CC[C@H](OC(=O)CC(C)(C)C(=O)O)C(C)(C)[C@@H]5CC[C@]43C)[C@@H]12` [Cpd 11-6, 3β-O-(3′,3′-Dimethylsuccinyl)-17β-[N′-(benzyl)ureido]-28-norlup-20(29)-ene], the IC50 in the assay on HIVIIIB [1] and in the assay with HIVIIIB [2] was under 0.199 µM each time.

In the case of `C=C(C)[C@@H]1CC[C@]2(NC(=O)CCN3CCCC3)CC[C@]3(C)[C@H](CC[C@@H]4[C@@]5(C)CC[C@H](OC(=O)CC(C)(C)C(=O)O)C(C)(C)[C@@H]5CC[C@]43C)[C@@H]12` [Cpd 13-11, 3β-O-(3′,3′-Dimethylsuccinyl)-17β-(3-pyrrolidin-1-yl-propionylamino)-28-norlup-20(29)-ene], the IC50 with HIVIIIB [1] and in the assay on HIVIIIB [2] was under 0.199 µM in each case.

Turning to `C=C(C)[C@@H]1CC[C@]2(NC(=O)C(C)C)CC[C@]3(C)[C@H](CC[C@@H]4[C@@]5(C)CC[C@H](OC(=O)CC(C)(C)C(=O)O)C(C)(C)[C@@H]5CC[C@]43C)[C@@H]12` [Cpd 13-10, 3β-O-(3′,3′-Dimethylsuccinyl)-17β-isobutyrylamino-28-norlup-20(29)-ene], the IC50 in the assay on HIVIIIB [1] and in the assay with HIVIIIB [2] was under 0.199 µM throughout.

Regarding `C=C(C)[C@@H]1CC[C@]2(NC(=O)N3CCN(C)CC3)CC[C@]3(C)[C@H](CC[C@@H]4[C@@]5(C)CC[C@H](OC(=O)CC(C)(C)C(=O)O)C(C)(C)[C@@H]5CC[C@]43C)[C@@H]12` [Cpd 11-9, 3β-O-(3′,3′-Dimethylsuccinyl)-17β-[(4-methyl-piperazine-1-carbonyl)-amino]-28-norlup-20(29)-ene], the IC50 in the assay with HIVIIIB [1] and in the assay with HIVIIIB [2] was under 0.199 µM in each case.
